Test results: patent US11472791B2 (Incyte Corporation, priority 2019, dated 2022)

Biological target: CDK2/Cyclin E1 (Homo sapiens (Human), UniProt P24941)
Test: CDK2/Cyclin E1 HTRF enzyme activity assay
Format: biochemical
Conditions: 1 mM ATP
Experimental: Assays are conducted in white 384-well polystyrene plates in a final reaction volume of 8 μL. […] HTRF signals are read after 1 hour at room temperature on a PHERAstar FS plate reader (BMG Labtech). Data is analyzed with IDBS XLFit and GraphPad Prism 5.0 software using a three or four parameter dose response curve to determine IC50 for each compound.

| Compound | IC50 [nM] |
| --- | --- |
| Cc1cc(CN2CCN(C)CC2)ccc1-n1cc(-c2nc(NC3CCN(S(=O)(=O)C4CC4)CC3)ncc2C(F)(F)F)cn1 [Example 234, N-(1-(Cyclopropylsulfonyl)piperidin-4-yl)-4-(1-(2-methyl-4-((4-methylpiperazin-1-yl)methyl)phenyl)-1H-pyrazol-4-yl)-5-(trifluoromethyl)pyrimidin-2-amine] | < 50 |
| Cc1cc(CN2CCN(CC3CC3)CC2)ccc1-n1cc(-c2nc(NC3CCN(S(=O)(=O)c4cn(C)cn4)CC3)ncc2C(F)(F)F)cn1 [Example 236, 4-(1-(4-((4-(Cyclopropylmethyl)piperazin-1-yl)methyl)-2-methylphenyl)-1H-pyrazol-4-yl)-N-(1-((1-methyl-1H-imidazol-4-yl)sulfonyl)piperidin-4-yl)-5-(trifluoromethyl)pyrimidin-2-amine] | < 50 |
| CCN1CCN(Cc2ccc(-n3cc(-c4nc(NC5CCN(S(C)(=O)=O)CC5)ncc4C#N)cn3)c(Cl)c2)CC1 [Example 238, 4-(1-(2-Chloro-4-((4-ethylpiperazin-1-yl)methyl)phenyl)-1H-pyrazol-4-yl)-2-((1-(methylsulfonyl)piperidin-4-yl)amino)pyrimidine-5-carbonitrile] | < 50 |
| CN1CCN(Cc2ccc(-n3cc(-c4nc(NC5CCN(S(C)(=O)=O)CC5)ncc4C#N)cn3)c(Cl)c2)CC1=O [Example 240, 4-(1-(2-Chloro-4-((4-methyl-3-oxopiperazin-1-yl)methyl)phenyl)-1H-pyrazol-4-yl)-2-((1-(methylsulfonyl)piperidin-4-yl)amino)pyrimidine-5-carbonitrile] | < 50 |
| CCN1CCN(Cc2ccc(-n3cc(-c4nc(NC5CCN(S(=O)(=O)c6cn(C)cn6)CC5)ncc4C#N)cn3)c(Cl)c2)CC1 [Example 241, 4-(1-(2-Chloro-4-((4-ethylpiperazin-1-yl)methyl)phenyl)-1H-pyrazol-4-yl)-2-((1-((1-methyl-1H-imidazol-4-yl)sulfonyl)piperidin-4-yl)amino)pyrimidine-5-carbonitrile] | < 50 |

The remaining lines, values ahead:

| IC50 [nM] | Compound |
| --- | --- |
| < 50 | CCN1CCN(Cc2ccc(-n3cc(-c4nc(NC5CCN(S(C)(=O)=O)CC5)ncc4C(F)(F)F)cn3)c(C)c2)CC1 [Example 232, 4-(1-(4-((4-Ethylpiperazin-1-yl)methyl)-2-methylphenyl)-1H-pyrazol-4-yl)-N-(1-(methylsulfonyl)piperidin-4-yl)-5-(trifluoromethyl)pyrimidin-2-amine] |
| < 50 | CCS(=O)(=O)N1CCC(Nc2ncc(C(F)(F)F)c(-c3cnn(-c4ccc(CN5CCN(C)CC5)cc4C)c3)n2)CC1 [Example 233, N-(1-(Ethylsulfonyl)piperidin-4-yl)-4-(1-(2-methyl-4-((4-methylpiperazin-1-yl)methyl)phenyl)-1H-pyrazol-4-yl)-5-(trifluoromethyl)pyrimidin-2-amine] |
| < 50 | CCN1CCN(Cc2ccc(-n3cc(-c4nc(NC5CCN(S(=O)(=O)c6cn(C)cn6)CC5)ncc4C(F)(F)F)cn3)c(C)c2)CC1 [Example 235, 4-(1-(4-((4-Ethylpiperazin-1-yl)methyl)-2-methylphenyl)-1H-pyrazol-4-yl)-N-(1-((1-methyl-1H-imidazol-4-yl)sulfonyl)piperidin-4-yl)-5-(trifluoromethyl)pyrimidin-2-amine] |
| < 50 | Cc1cc(CN2CCN(C)C(=O)C2)ccc1-n1cc(-c2nc(NC3CCN(S(=O)(=O)c4cn(C)cn4)CC3)ncc2C(F)(F)F)cn1 [Example 237, 1-Methyl-4-(3-methyl-4-(4-(2-((1-((1-methyl-1H-imidazol-4-yl)sulfonyl)piperidin-4-yl)amino)-5-(trifluoromethyl)pyrimidin-4-yl)-1H-pyrazol-1-yl)benzyl)piperazin-2-one] |
| < 50 | CCS(=O)(=O)N1CCC(Nc2ncc(C#N)c(-c3cnn(-c4ccc(CN5CCN(C)CC5)cc4Cl)c3)n2)CC1 [Example 239, 4-(1-(2-chloro-4-((4-methylpiperazin-1-yl)methyl)phenyl)-1H-pyrazol-4-yl)-2-((1-(ethylsulfonyl)piperidin-4-yl)amino)pyrimidine-5-carbonitrile] |
